A short description of data set [1]: Pharmacokinetics assay in SD rats after intragastric administration (plasma LC/MS/MS). It is filed as in vivo. As to conditions: po 5.0 mg/kg; for CL/F: read-out: Cl/F—obs (clearance). On the procedure:
SD rats were used as test animals. The drug concentration in plasma at different time points was determined by LC/MS/MS method after intragastrical administration of the crystal form 2 of the malate of the present invention and free form. The pharmacokinetic behavior and property of the crystal form 2 of the malate of the present invention and free form were studied and evaluated in SD rats.
Samples: crystal form 2 of the malate of the present invention and free form (the product of Example 1), prepared according to the methods of Examples 14 and 1.
Test animals: 8 healthy SD rats, half male and half female, were divided in two groups, and purchased from SINO-BRITSH SIPPR/BK LAB. ANIMAL LTD., CO, with certificate No.: SOCK (Shanghai) 2008-0016.
Preparation of the test compounds: the test compounds were added to 0.5% CMC-Na to prepare 0.5 mg/mL homogeneous suspensions for oral administration by ultrasound.
Administration: after an overnight fasting, 8 healthy SD rats, half male and half female, were administered the test compounds intragastrically at an administration volume of 10 mL/kg.
After an overnight fasting, 8 healthy SD rats, half male and half female, were administered the test compounds intragastrically. Blood samples (0.1 mL) were taken by jugular vein puncture before administration and at 0.5, 1, 2, 4, 6, 8, 12, and 24 hours after administration, and heparin sodium was used as an anticoagulant. The blood samples were centrifuged for 10 minutes at 3,500 rpm to separate the blood plasma, which was stored at −20° C. The content of the test compound in the plasma of SD rats after intragastric administration was determined by LC/MS/MS method.

Data set [2] is described as follows: Stability of crystal forms spread flat in air under lighting, heating and high humidity (purity by HPLC). It is filed as physicochemical. On the procedure:
The sample of crystal form I of the compound of formula (I) prepared in Example 2 and the sample of crystal form II prepared in Example 3 were spread flat in the air respectively to test the stability under conditions of lighting (4500 Lux), heating (40° C., 60° C.), and high humidity (RH 75%, RH 90%). Samplings were carried out on Day 5 and Day 10.

Data set [3] in a line: Special stability study of crystal form I (grinding, heating, tableting; XRPD/DSC). In kind it is physicochemical. From the text:
Crystal form I of the compound of formula (I) prepared according to the method of Example 2 was ground, heated and tableted.

Data set [4] in a line: Salt formation study (solubility, hygroscopicity). In kind it is physicochemical. As to conditions: in words. From the text:
In a preferred embodiment, the salt can be selected from the group consisting of tartrate, hydrochloride, sulfate, methanesulfonate, phosphate, citrate, maleate, fumarate, malate, benzenesulfonate, p-toluenesulfonate and hydrobromide, and most preferably L-tartrate and malate. The L-tartrate of (R)-5-cyano-N-(1-(2-hydroxy-2-(4-methyl-1-oxo-1,3-dihydroisobenzofuran-5-yl)ethyl) piperidin-4-yl)-4-methoxypicolinamide, i.e. the compound of the following formula (I), can be obtained by reacting (R)-5-cyano-N-(1-(2-hydroxy-2-(4-methyl-1-oxo-1,3-dihydroisobenzofuran-5-yl)ethyl) piperidin-4-yl)-4-methoxypicolinamide with L-tartaric acid. The hydrochloride, sulfate, methanesulfonate, phosphate, citrate, maleate, fumarate, malate, benzenesulfonate, p-toluenesulfonate and hydrobromide of (R)-5-cyano-N-(1-(2-hydroxy-2-(4-methyl-1-oxo-1,3-dihydroisobenzofuran-5-yl)ethyl) piperidin-4-yl)-4-methoxypicolinamide can be prepared by using a similar method. […]

The mark [5] stands for this setting: both sexes, rat, plasma, 0.5% CMC-Na suspension.

With `COc1cc(C(=O)NC2CCN(C[C@H](O)c3ccc4c(c3C)COC4=O)CC2)ncc1C#N.O=C(O)CC(O)C(=O)O` [Crystal form 2 of the malate, (R)-5-cyano-N-(1-(2-hydroxy-2-(4-methyl-1-oxo-1,3-dihydroisobenzofuran-5-yl)ethyl)piperidin-4-yl)-4-methoxypicolinamide], the CL/F in data set [1] (setting [5]) is 6.87 mL/min/kg. Moreover, the half-life in data set [1] (both sexes, rat, plasma, 0.5% CMC-Na suspension, read-out: T1/2 (half-life) (converted)) is 5.24 h. Moreover, in data set [1] (both sexes, rat, plasma, 0.5% CMC-Na suspension, read-out: Vz/F—obs (apparent distribution volume)), the Vd/F is 3.09 L/kg. Also, the “AUClast (area under curve 0→t)” value in data set [1] (0.5% CMC-Na suspension) is 13365 ng·h/mL. For the same compound, in data set [1] (in words), the “clearance compared to the free form” value is listed as “lower”, the “exposure dose compared to the free form” value was “higher” and the “half-life compared to the free form” value is “longer”.

With `COc1cc(C(=O)NC2CCN(C[C@H](O)c3ccc4c(c3C)COC4=O)CC2)ncc1C#N.O=C(O)C(O)C(O)C(=O)O` [Crystal form I, L-tartrate of (R)-5-cyano-N-(1-(2-hydroxy-2-(4-methyl-1-oxo-1,3-dihydroisobenzofuran-5-yl)ethyl)piperidin-4-yl)-4-methoxypicolinamide], the “purity as detected by HPLC” value is reported as 99.67% in data set [2] (40° C., day 0); 99.52% in data set [2] (40° C., day 5); 99.45% in data set [2] (40° C., day 10); 99.67% in data set [2] (60° C., day 0); 99.55% in data set [2] (60° C., day 5); 99.39% in data set [2] (60° C., day 10). For the same compound, the “purity as detected by HPLC” value in data set [2] (Lighting (4500 Lux), day 0) worked out at 99.67%; in data set [2] (Lighting (4500 Lux), day 5), 99.54%; in data set [2] (Lighting (4500 Lux), day 10), 99.34%; in data set [2] (RH 75%, day 0) it was 99.67%; in data set [2] (RH 75%, day 5), 99.53%; in data set [2] (RH 75%, day 10) it was 99.39%. Moreover, the “purity as detected by HPLC” value in data set [2] (RH 90%, day 0) turned out to be 99.67%; in data set [2] (RH 90%, day 5), 99.59%; in data set [2] (RH 90%, day 10), 99.43%. Besides, the “stability under conditions of lighting, high temperature and high humidity” value in data set [2] (in words) was “stable”. Further, the “stability compared with crystal form II” value in data set [2] (spread flat in air, lighting, high temperature and high humidity, in words) was “significantly better”. Moreover, the “DSC peak after treatment” value in data set [3] (Grinding treatment for 10 minutes in a mortar under nitrogen) was determined as 214.17 °C; in data set [3] (Heating treatment for 3 hours at 80° C.) it was 214.40 °C; in data set [3] (Tableting treatment), 214.44 °C. The “stability of the crystal form” value in data set [3] (grinding, heating / pressure (tableting), in words) is “stable”.

Consider `COc1cc(C(=O)NC2CCN(C[C@H](O)c3ccc4c(c3C)COC4=O)CC2)ncc1C#N.O=C(O)C(O)C(O)C(=O)O` [Crystal form II, L-tartrate of (R)-5-cyano-N-(1-(2-hydroxy-2-(4-methyl-1-oxo-1,3-dihydroisobenzofuran-5-yl)ethyl)piperidin-4-yl)-4-methoxypicolinamide], for which the “purity as detected by HPLC” value in data set [2] (40° C., day 0) is listed as 99.47%; in data set [2] (40° C., day 5), 99.38%; in data set [2] (40° C., day 10), 99.15%; in data set [2] (60° C., day 0) it was 99.47%; in data set [2] (60° C., day 5) it was 99.22%; in data set [2] (60° C., day 10) it was 98.87%. Further, the “purity as detected by HPLC” value is 99.47% in data set [2] (Lighting (4500 Lux), day 0); 99.23% in data set [2] (Lighting (4500 Lux), day 5); 98.62% in data set [2] (Lighting (4500 Lux), day 10); 99.47% in data set [2] (RH 75%, day 0); 99.30% in data set [2] (RH 75%, day 5); 99.10% in data set [2] (RH 75%, day 10). The “purity as detected by HPLC” value is 99.47% in data set [2] (RH 90%, day 0); 99.30% in data set [2] (RH 90%, day 5); 99.10% in data set [2] (RH 90%, day 10).

Regarding `COc1cc(C(=O)NC2CCN(C[C@H](O)c3ccc4c(c3C)COC4=O)CC2)ncc1C#N` [Free form, (R)-5-cyano-N-(1-(2-hydroxy-2-(4-methyl-1-oxo-1,3-dihydroisobenzofuran-5-yl)ethyl)piperidin-4-yl)-4-methoxypicolinamide], in data set [1] (setting [5]), the CL/F is 9.82 mL/min/kg. Also, the “AUClast (area under curve 0→t)” value in data set [1] (0.5% CMC-Na suspension) came out at 9283 ng·h/mL. For the same compound, the solubility entry in data set [4] is reported as “low”.

For `COc1cc(C(=O)NC2CCN(C[C@H](O)c3ccc4c(c3C)COC4=O)CC2)ncc1C#N` [sulfate, (R)-5-cyano-N-(1-(2-hydroxy-2-(4-methyl-1-oxo-1,3-dihydroisobenzofuran-5-yl)ethyl)piperidin-4-yl)-4-methoxypicolinamide], the hygroscopicity entry in data set [4] (salt formation study) is on record as “obviously hygroscopic”.

The values are drawn from US11059810B2, “Pharmaceutically acceptable salt as renal outer medullary potassium channel inhibitor” (Jiangsu Hengrui Medicine Co., Ltd., priority 2016, dated 2021).
